Reference: publication PMC9415015, “CK2 Inhibition and Antitumor Activity of 4,7-Dihydro-6-nitroazolo[1,5-a]pyrimidines” (Molecules, 2022)
Read-outs that look alike come from different tables or passages of the source.

Assays:
A-172 cells = assay: MTT test, glioblastoma cells; assay type: cell-based, human; details: for Cytotoxicity index IC50 ± SE, A-172: MTT, 72 h incubation; for Selectivity ratio SR (A-172): normal/cancer cell (Hek-293 vs A-172)
Method: (§1) The studies were carried out on cultured cells of human glioblastoma (A-172, ATCC CRL 1620), human osteosarcoma (Hos, ATCC CRL 1543), human embryonic rhabdomyosarcoma (Rd, ATCC CRL 136), and human embryonic kidney 293 cells (Hek-293, ATCC CRL 1573) obtained from the Shared research facility “Vertebrate cell culture collection” (Institute of Cytology RAS, Saint-Petersburg, Russia). The cells were cultured using DMEM / F-12 medium containing 10% fetal bovine serum at 37°C, 5% CO2, and 98% humidity. Subculturing was performed using 0.25% trypsin solution when the culture reached ≥90% confluency.
(§2) The compounds were dissolved in DMSO. The solutions were diluted with DMEM/F-12 culture medium with 10% fetal bovine serum to the studied concentrations: 8, 16, 32, 64, 128, 256, 512, and 1024 µM. […] Cisplatin (cPt) was used as a positive control.
(§3) Cells were seeded in 96-well plates at a concentration of 4 × 10^3 cells per well. After 24 h, test compounds were added to the wells in a given concentration range. Then the cells were incubated for 72 h, after which a solution of MTT (3-(4,5-dimethyl-2-thiazolyl)-2,5-diphenyl-2H-tetrazolium bromide) was added to the cultures at 20 µL (5 mg/mL) to the well. After 2.5 h, the medium was removed from the wells and 200 µL of a mixture of DMSO/i-PrOH 1/1 was added. Optical density was measured on a plate spectrophotometer at a wavelength of 570 nm.
(§4) Statistical data processing was carried out in the RStudio program (Version 1.4.1106 © […] RStudio, PBC, Boston, MA, USA) using the R package (version 4.1.2). The cytotoxicity index (IC50) was calculated by plotting dose–response curves using the “drc” package.

Rd cells = assay: MTT test, embryonic rhabdomyosarcoma cells; assay type: cell-based, human; details: for Cytotoxicity index IC50 ± SE, Rd: MTT, 72 h incubation; for Selectivity ratio SR (RD): normal/cancer cell (Hek-293 vs Rd)
Method: as §1, §2, §3, §4

Hos cells = assay: MTT test, osteosarcoma cells; assay type: cell-based, human; details: for Cytotoxicity index IC50 ± SE, Hos: MTT, 72 h incubation; for Selectivity ratio SR (HOS): normal/cancer cell (Hek-293 vs Hos)
Method: as §1, §2, §3, §4

Hek-293 cells = assay: MTT test, human embryonic kidney cells; assay type: cell-based; details: 72 h incubation
Method: as §1, §2, §3, §4

human recombinant CK2α1 = target: T1, human recombinant CK2α1 (Homo sapiens, UniProt P68400); assay: CK2 ADP-Glo kinase assay; assay type: biochemical; details: for inhibition at 50 µM: read-out: CK2 Inhibition at 50 μM, m ± SD (%); for Effect on CK2 activity in initial screening (in words): initial screening at 50 μM
T1 construct: purchased Promega V4482
Method: Kinase activity was determined using the enzyme system CK2α1 (Promega V4482, Madison, WI, USA) and the ADP-Glo^TM kit (Promega V9101, Madison, WI, USA) in white 96-well plates (Nunc U96 Microwell 267350, Denmark). The reaction was carried out using 50 ng/well of N-GST labeled human recombinant CK2α1, 0.1 µg/µL bovine casein as a substrate, 10 μM ATP in 40 mM Tris buffer solution (pH 7.50) containing 20 mM MgCl2, 0.1 mg/mL of BSA, and 50 μM of DTT. Test compounds were added to 1.25% DMSO (final concentration 0.25%) and preincubated with kinase for 10 min. The reaction was carried out for 60 min at 25 °C in a thermostatically controlled PST-60HL shaker (Biosan. […], Latvia). ATP-dependent luminescence was measured at an integration time of 1000 ms using the Infinite M200 PRO microplate reader (Tecan. Austria). The ATP-competitive inhibitor Staurosporin (CAS 62996–74-1, Alfa Aesar J62837, 99+%) was used as a positive control. The experiments were performed in two parallels.

[1] = 50 μM compound, 10 μM ATP, n.a. = not active
[2] = dose-response study of CK2 inhibition
[3] = dose-response study, 10 μM ATP, read-out: CK2 IC50

T1 sequence (P68400 whole entry): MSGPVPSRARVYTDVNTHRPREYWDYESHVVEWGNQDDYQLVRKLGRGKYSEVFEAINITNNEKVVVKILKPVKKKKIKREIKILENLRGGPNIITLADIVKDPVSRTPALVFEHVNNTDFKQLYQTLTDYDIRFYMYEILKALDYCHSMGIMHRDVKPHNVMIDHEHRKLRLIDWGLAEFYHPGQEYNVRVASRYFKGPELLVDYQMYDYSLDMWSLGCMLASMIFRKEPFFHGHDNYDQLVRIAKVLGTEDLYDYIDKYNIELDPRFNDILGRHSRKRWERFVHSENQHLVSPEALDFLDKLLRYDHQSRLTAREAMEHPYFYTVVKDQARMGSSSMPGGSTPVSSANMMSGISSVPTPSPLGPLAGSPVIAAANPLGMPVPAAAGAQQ

Compound | Cytotoxicity index IC50 ± SE, A-172 (A-172 cells) | Cytotoxicity index IC50 ± SE, Rd (Rd cells) | Cytotoxicity index IC50 ± SE, Hos (Hos cells) | Cytotoxicity index IC50 ± SE, Hek-293 (Hek-293 cells) | inhibition at 50 µM (human recombinant CK2α1; [1]) | CK2 inhibitory potency in dose-response study (in words) (human recombinant CK2α1; dose-response study) | Hill Coefficient (human recombinant CK2α1; [2]) | IC50 (human recombinant CK2α1; [3]) | Effect on CK2 activity in initial screening (in words) (human recombinant CK2α1) | Selectivity ratio SR (A-172) (A-172 cells) | Selectivity ratio SR (RD) (Rd cells) | Selectivity ratio SR (HOS) (Hos cells) | Hill Coefficient (human recombinant CK2α1) | inhibition at 50 µM (human recombinant CK2α1) | IC50 (human recombinant CK2α1)
CC1=C([N+](=O)[O-])C(c2cccs2)n2nccc2N1 (stereo not drawn) [Compound 5d, 6-Nitro-5-methyl-7-(thiophen-2ʹ-yl)-4,7-dihydropyrazolo[1,5-a]pyrimidine] | 28.91 ± 4.58 µM | 105.54 ± 16.81 µM | 103.53 ± 18.27 µM | 543.74 ± 70.79 µM | – | – | – | – | – | – | – | – | – | – | –
CCC1=C([N+](=O)[O-])C(c2ccc([N+](=O)[O-])cc2)n2nc(SC)c(C#N)c2N1 (stereo not drawn) [Compound 5n, 5-Ehtyl-3-cyano-2-methylthio-6-nitro-7-(4ʹ-nitrophenyl)-4,7-dihydropyrazolo[1,5-a]pyrimidine] | 119.75 ± 8.49 µM | 151.44 ± 7.28 µM | 112.26 ± 8.19 µM | 78.70 ± 9.75 µM | 19.8 ± 24.5% | – | – | – | – | – | – | – | – | – | –
CCC1=C([N+](=O)[O-])C(c2cccs2)n2ncc(C#N)c2N1 (stereo not drawn) [Compound 5k, 3-Cyano-5-ethyl-6-nitro-7-(thiophen-2-yl)-4,7-dihydropyrazolo[1,5-a]pyrimidine] | 110.23 ± 2.97 µM | 89.43 ± 10.46 µM | 77.32 ± 3.06 µM | 107.57 ± 11.10 µM | 66.8 ± 7.97% | micromolar CK2 inhibitors | −1.183 | 52.3 µM | Moderate inhibition | – | – | – | – | – | –
CSc1nn2c(c1C#N)NC(C)=C([N+](=O)[O-])C2c1ccccc1 (stereo not drawn) [Compound 5m, 3-Cyano-5-methyl-2-methylthio-6-nitro-7-phenyl-4,7-dihydropyrazolo[1,5-a]pyrimidine] | 13.36 ± 0.98 µM | 27.52 ± 2.77 µM | 18.54 ± 1.79 µM | – | – | – | – | – | paradoxically enhance CK2 activity | 15.8 | 7.7 | 11.4 | – | – | –
CCOC(=O)c1cnn2c1NC(CC)=C([N+](=O)[O-])C2c1ccccc1 (stereo not drawn) [Compound 5e, 3-Etoxycarbonyl-5-ethyl-6-nitro-7-phenyl-4,7-dihydropyrazolo[1,5-a]pyrimidine] | 256.72 ± 12.20 µM | 99.46 ± 4.43 µM | 126.60 ± 7.17 µM | 222.84 ± 6.33 µM | – | – | – | – | – | – | – | – | – | – | –
CN[C@@H]1C[C@H]2O[C@@](C)([C@@H]1OC)n1c3ccccc3c3c4c(c5c6ccccc6n2c5c31)C(=O)NC4 [Staurosporine, reference compound] | – | – | – | – | – | – | – | – | – | – | – | – | −0.974 | 72.3 ± 6.39% | –
CCC1=C([N+](=O)[O-])C(c2ccc([N+](=O)[O-])cc2)n2ncc(C#N)c2N1 (stereo not drawn) [Compound 5h, 3-Cyano-5-ehtyl-6-Nitro-7-(4ʹ-nitrophenyl)-4,7-dihydropyrazolo[1,5-a]pyrimidine] | 323.41 ± 22.70 µM | 378.59 ± 20.39 µM | 234.97 ± 25.80 µM | 153.47 ± 12.35 µM | – | micromolar CK2 inhibitors | −1.566 | – | Moderate inhibition | – | – | – | – | 54.8 ± 0.87% | 59.5 µM
N.N.[Cl][Pt][Cl] [cPt, Cisplatin, reference compound] | 3.64 ± 0.21 µM | 4.99 ± 0.31 µM | 2.36 ± 0.12 µM | 4.41 ± 0.24 µM | – | – | – | – | – | 1.2 | 0.9 | 1.9 | – | – | –
5-Methyl-2-methylthio-6-nitro-7-(4ʹ-nitrophenyl)-4,7-dihydro-1,2,4-triazolo[1,5-a]pyrimidine [Compound 6c] | 41.27 ± 4.10 µM | 71.15 ± 6.84 µM | 40.88 ± 4.11 µM | – | – | – | – | – | paradoxically enhance CK2 activity | 5.5 | 3.2 | 5.6 | – | – | –
3-Cyano-2-methylthio-6-nitro-7-(4ʹ-nitrophenyl)-4,7-dihydropyrazolo[1,5-a]pyrimidine [Compound 5o] | 22.49 ± 2.93 µM | 36.33 ± 3.40 µM | 28.09 ± 3.91 µM | – | – | – | – | – | paradoxically enhance CK2 activity | 7.5 | 4.7 | 6 | – | – | –
CSc1nn2c(c1C#N)NC=C([N+](=O)[O-])C2c1ccccc1 (stereo not drawn) [Compound 5l, 3-Cyano-2-methylthio-6-nitro-7-phenyl-4,7-dihydropyrazolo[1,5-a]pyrimidine] | 77.79 ± 4.02 µM | 124.66 ± 6.80 µM | 92.91 ± 3.91 µM | 162.30 ± 9.95 µM | 48.4 ± 4.48% | micromolar CK2 inhibitors | −2.947 | 57.2 µM | Moderate inhibition | – | – | – | – | – | –
CCC1=C([N+](=O)[O-])C(c2ccc([N+](=O)[O-])cc2)n2nc(C(F)(F)F)nc2N1 (stereo not drawn) [Compound 6e] | 82.44 ± 2.22 µM | 192.69 ± 10.27 µM | 93.72 ± 5.89 µM | 54.16 ± 5.32 µM | 39.8 ± 19.5% | low potency | – | > 100 µM | Moderate inhibition | – | – | – | – | – | –
N#Cc1cnn2c1NC=C([N+](=O)[O-])C2c1ccccc1 (stereo not drawn) [Compound 5g, 3-Cyano-6-nitro-7-phenyl-4,7-dihydropyrazolo[1,5-a]pyrimidine] | 171.74 ± 8.63 µM | 149.72 ± 11.01 µM | 181.14 ± 7.47 µM | 483.09 ± 37.61 µM | – | – | – | – | paradoxically enhance CK2 activity | – | – | – | – | – | –
CSc1nc2n(n1)C(c1ccccc1)C([N+](=O)[O-])=C(C)N2 (stereo not drawn) [Compound 6b, 5-Methyl-2-methylthio-6-nitro-7-phenyl-4,7-dihydro-1,2,4-triazolo[1,5-a]pyrimidine] | 71.03 ± 2.07 µM | 110.11 ± 4.93 µM | 92.03 ± 3.08 µM | 237.40 ± 11.99 µM | – | – | – | – | – | – | – | – | – | – | –
CCOC(=O)c1cnn2c1NC(CC)=C([N+](=O)[O-])C2c1ccc([N+](=O)[O-])cc1 (stereo not drawn) [Compound 5f, 3-Etoxycarbonyl-5-ethyl-6-nitro-7-(4ʹ-nitrophenyl)-4,7-dihydropyrazolo[1,5-a]pyrimidine] | 212.36 ± 42.85 µM | 121.97 ± 13.53 µM | 170.14 ± 11.16 µM | 35.86 ± 4.30 µM | – | micromolar CK2 inhibitors | −1.369 | – | Moderate inhibition | – | – | – | – | 53.81 ± 0.42% | 52.8 µM
